One data set has as its target T1, ALDH1A1 (Homo sapiens, UniProt P00352).
T1 construct: inferred from Ni-NTA purification; made in house; host or cells: E. coli BL21(DE3)
T1 sequence (P00352 1-501): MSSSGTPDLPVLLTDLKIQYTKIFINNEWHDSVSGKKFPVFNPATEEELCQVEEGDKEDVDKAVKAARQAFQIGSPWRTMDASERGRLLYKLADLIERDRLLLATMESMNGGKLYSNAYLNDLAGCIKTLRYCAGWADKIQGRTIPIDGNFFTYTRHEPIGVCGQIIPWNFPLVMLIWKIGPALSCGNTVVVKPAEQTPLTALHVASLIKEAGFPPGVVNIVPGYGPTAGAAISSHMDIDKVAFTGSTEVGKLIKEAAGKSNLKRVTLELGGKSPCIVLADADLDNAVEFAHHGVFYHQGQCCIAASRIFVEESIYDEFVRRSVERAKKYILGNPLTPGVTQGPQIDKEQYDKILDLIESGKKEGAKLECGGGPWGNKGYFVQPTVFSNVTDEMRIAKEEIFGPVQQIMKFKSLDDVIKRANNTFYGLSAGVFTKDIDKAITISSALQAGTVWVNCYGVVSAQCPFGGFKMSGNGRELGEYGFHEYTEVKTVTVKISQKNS
The data set can be described thus: Logic-gate activation of AlDeLuc by acid, ALDH1A1 and luciferase; dose dependence. In kind it is biochemical. How it is done: Dose-dependent Enhancement of AlDeLuc. The response of ALDH1A1 (0.4 μM) against different concentrations of AlDeLuc was measured in a black 96-well plate and was monitored using the IVIS imaging system. Various stocks of AlDeLuc were generated so that 20 μL of the probe solution gave the desired concentration. Stocks were prepared by the following: AlDeLuc was first dissolved in DMSO followed by a 60 minute incubation in equal volume 1 M HCl. Subsequently, the reaction was neutralized with 1 M NaOH and diluted with PBS. To a black 96-well plate, TEA buffer (pH 7.4), NAD^+ (2.5 mM), and either […], 5 μM, 10 μM, or 50 μM of AlDeLuc was added. After 60 minutes, each well was treated with ATP-MgSO4 (45 μL, prepared by mixing 17.78 mM ATP-Mg and 35.56 mM MgSO4 in a 1:1 ratio in PBS buffer) and luciferase (5 μL, 1 mg/mL in PBS containing 10% glycerol) to initiate bioluminescence production. Light was collected immediately after mixing, and the signal enhancement was determined relative to control wells not treated with enzymes. The total volume of each well was 200 μL (TEA (pH 7.4) with 0.2% DMSO). All data reported as the mean±standard deviation (n=4).
Dose-dependent Activation of AlDeLuc by ALDH1A1. The response of AlDeLuc (5 μM) against different concentrations of ALDH1A1 was measured in a black 96-well plate and was monitored using the IVIS imaging system. To a black 96-well plate, PBS (pH 7.4), NAD^+, and either 0.05 μM, 0.1 μM, 0.4 μM, 2 μM, or 4 μM of ALDH1A1, was added AlDeLuc. Immediately after, each well was treated with ATP-MgSO4 (45 μL, prepared by mixing 17.78 mM ATP-Mg and 35.56 mM MgSO4 in a 1:1 ratio in PBS buffer) and luciferase (5 μL, 1 mg/mL in PBS containing 10% glycerol) to initiate bioluminescence production. Light was collected immediately after mixing, and the signal enhancement was determined relative to control wells not treated with enzymes. The total volume of each well was 200 μL (PBS (pH 7.4) with 0.2% DMSO). All data reported as the mean standard deviation (n=3).

The next data set concerns 4T1-Luc tumors. The data set is described as follows: Bioluminescence imaging of heterotopic breast cancer model with AlDeLuc. In kind it is in vivo, BALB/c mice. Particulars: 0.55 mg/kg retro-orbital. On the procedure:
Generation of 4T1-Luc Breast Cancer Model. Female or male BALB/c mice (˜6 weeks old) were inoculated with 4T1-Luc cells (50 μL of 1×10^6 cells in 1:1 v/v serum-free RPMI 1640 media and Matrigel) via subcutaneous injections into each flank. Tumor volumes were measured using the caliper method every three days. Body weight was measured daily over the course of the experiment. After two weeks, the tumor was in the 200 to 400 mm^3 range.
Bioluminescence Imaging of a Heterotopic Breast Cancer Model with AlDeLuc. BALB/c mice bearing 4T1-Luc tumors were anesthetized using isoflurane (1-3% for maintenance; up to 5% for induction) in oxygen from a precision vaporizer. After testing to ensure animals are fully under anesthesia, each mouse was administered a control solution of 1:19 v/v DMSO:PBS via retro-orbital injection. After 40 minutes, the mice were imaged on the IVIS imaging system. Luminescence was collected using an open filter set. ROIs were drawn around both the left and right tumors, and the intensity was calculated using the Living Image Analysis software.
The following day the mice were anesthetized, and administered AlDeLuc (0.55 mg/kg, 1:19 v/v DMSO:PBS). […] Luminescence was collected using an open filter set. ROIs were drawn around both the left and right tumors, and the intensity was calculated using the Living Image Analysis software.

Take `CCN(CC)c1ccc2nc(C3=N[C@@H](C(OC)OC)CS3)sc2c1` [AlDeLuc, (S)-2-(4-(dimethoxymethyl)-4,5-dihydrothiazol-2-yl)-N,N-diethylbenzo[d]thiazol-6-amine]: the “signal intensity versus amount of ALDH1A1” value at ALDH1A1 (AlDeLuc 5 μM, ALDH1A1 0 to 4 μM) is listed as “highest ALDH1A1 concentration showed the most intense signal”. Also, at ALDH1A1 (AlDeLuc 2 to 50 μM, ALDH1A1 0.4 μM), the “signal intensity versus AlDeLuc concentration” value is “concentration-dependent increase”. Further, the “bioluminescent signal when acidic conditions and ALDH1A1 applied separately, compared to both” value on ALDH1A1 (luciferase 0.02 mg/mL) was “significantly attenuated”. For the same compound, the “time at which tumor bioluminescence signal plateaued” value with 4T1-Luc tumors (4T1-Luc tumors) was 40 min. For the same compound, the “signal at the 24-hour mark” value in the data set with 4T1-Luc tumors (24 hours after administration) is “complete clearance”.

(Values after US20250282770A1, “BIOLUMINESCENT PROBES TO TRACK STEM CELLS IN VIVO” (THE BOARD OF TRUSTEES OF THE UNIVERSITY OF ILLINOIS, priority 2024, published 2025).)
